Values quoted from earlier work in US11963942B2, “Oral taxane compositions and methods” (Athenex HK Innovative Limited, priority 2015, dated 2024).

Molecular target: MDR1 (ABCB1) (Homo sapiens, UniProt P08183)
Settings: Kwak et al., Eur. J. Pharm. 627, 92-98 (2010)

Chain of MDR1 (ABCB1) (P08183 whole entry, species assumed): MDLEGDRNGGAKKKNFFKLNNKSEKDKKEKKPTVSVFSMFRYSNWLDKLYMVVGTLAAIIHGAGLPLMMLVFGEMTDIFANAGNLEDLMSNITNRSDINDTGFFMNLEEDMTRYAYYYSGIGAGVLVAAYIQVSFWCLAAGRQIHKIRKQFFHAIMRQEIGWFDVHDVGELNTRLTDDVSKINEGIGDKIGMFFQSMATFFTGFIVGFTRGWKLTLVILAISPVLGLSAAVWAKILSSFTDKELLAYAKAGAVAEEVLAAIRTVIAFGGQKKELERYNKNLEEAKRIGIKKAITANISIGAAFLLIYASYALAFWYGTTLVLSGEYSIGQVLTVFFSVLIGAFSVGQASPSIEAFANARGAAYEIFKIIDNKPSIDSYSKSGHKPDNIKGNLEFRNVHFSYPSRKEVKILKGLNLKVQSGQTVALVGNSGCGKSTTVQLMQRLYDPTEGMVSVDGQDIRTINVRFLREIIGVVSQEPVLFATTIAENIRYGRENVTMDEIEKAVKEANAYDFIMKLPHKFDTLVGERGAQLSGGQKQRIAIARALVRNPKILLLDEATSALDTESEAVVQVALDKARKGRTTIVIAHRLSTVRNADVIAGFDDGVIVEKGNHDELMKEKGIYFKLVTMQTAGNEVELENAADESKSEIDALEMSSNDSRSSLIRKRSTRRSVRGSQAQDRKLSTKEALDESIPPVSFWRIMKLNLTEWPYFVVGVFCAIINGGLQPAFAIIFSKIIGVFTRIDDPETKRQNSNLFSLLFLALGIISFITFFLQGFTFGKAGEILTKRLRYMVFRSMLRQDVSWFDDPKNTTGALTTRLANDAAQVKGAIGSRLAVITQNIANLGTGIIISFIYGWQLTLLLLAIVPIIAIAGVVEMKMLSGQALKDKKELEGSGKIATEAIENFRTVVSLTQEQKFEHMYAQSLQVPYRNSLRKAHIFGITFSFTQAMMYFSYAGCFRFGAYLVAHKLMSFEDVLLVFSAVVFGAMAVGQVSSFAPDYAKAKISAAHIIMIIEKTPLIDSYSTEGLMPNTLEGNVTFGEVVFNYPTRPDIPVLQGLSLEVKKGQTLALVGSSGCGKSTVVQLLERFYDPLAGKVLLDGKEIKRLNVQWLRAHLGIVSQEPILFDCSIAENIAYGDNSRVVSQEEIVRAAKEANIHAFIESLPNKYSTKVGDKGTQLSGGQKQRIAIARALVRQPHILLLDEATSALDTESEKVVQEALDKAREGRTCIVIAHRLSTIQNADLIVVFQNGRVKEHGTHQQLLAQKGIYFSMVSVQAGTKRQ

## COc1cc2c(cc1OC)CN(CCc1ccc(-n3nnc(-c4cc(OC)c(OC)cc4NC(=O)c4cc(=O)c5ccccc5o4)n3)cc1)CC2 [HM30181, 4-oxo-4H-chromene-2-carboxylic acid [2-(2-(4-[2-(6,7-dimethoxy-3,4-dihydro-1H-isoquinolin-2-yl)-ethyl]-phenyl)-2H-tetrazol-5-yl)-4,5-dimethoxy-phenyl]-amide]
  potency compared with cyclosporine A: more potent than cyclosporine A
